Experimental data reported in the supplement of paper PMC10307832.

Legend:
Test in all cases: relative viability (nuclei count vs DMSO), 5 days (fraction); higher = more cells survive
Metformin + Tozasertib = compound: CN(C)C(=N)NC(=N)N [Metformin] + Cc1cc(Nc2cc(N3CCN(C)CC3)nc(Sc3ccc(NC(=O)C4CC4)cc3)n2)n[nH]1 [Tozasertib] (partner 0.1 µM)
In short: (§1)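 Relative viability divides the nuclei count in treated wells by that in vehicle wells. Lung cancer cell lines were seeded in 1536-well plates, dosed by pin tool the next day, and fixed and stained after 5 days in one step with final 0.05% Triton X-100, 1% formaldehyde and 1 ug/ml Hoechst. Dosing was a single drug or a fixed anchor-drug dose plus five library-drug doses (not always all listed) in √10 steps, and values are medians of duplicate plates imaged at 4×.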

Apatinib + Navitoclax = compound: N#CC1(c2ccc(NC(=O)c3cccnc3NCc3ccncc3)cc2)CCCC1 [Apatinib] + CC1(C)CCC(c2ccc(Cl)cc2)=C(CN2CCN(c3ccc(C(=O)NS(=O)(=O)c4ccc(N[C@H](CCN5CCOCC5)CSc5ccccc5)c(S(=O)(=O)C(F)(F)F)c4)cc3)CC2)C1 [Navitoclax] (partner 0.5 µM)
In short: as §1

Apatinib + Crizotinib = compound: N#CC1(c2ccc(NC(=O)c3cccnc3NCc3ccncc3)cc2)CCCC1 [Apatinib] + C[C@@H](Oc1cc(-c2cnn(C3CCNCC3)c2)cnc1N)c1c(Cl)ccc(F)c1Cl [Crizotinib] (partner 1 µM)
In short: as §1

Apatinib + Pemetrexed = compound: N#CC1(c2ccc(NC(=O)c3cccnc3NCc3ccncc3)cc2)CCCC1 [Apatinib] + Nc1nc2[nH]cc(CCc3ccc(C(=O)N[C@@H](CCC(=O)O)C(=O)O)cc3)c2c(=O)[nH]1 [Pemetrexed] (partner 0.2 µM)
In short: as §1

COR-L 105
relative viability (Metformin + Tozasertib; first compound 10 µM): 0.355
relative viability (Metformin + Tozasertib; first compound 31.62 µM): 0.336
relative viability (Metformin + Tozasertib; first compound 100 µM): 0.37
relative viability (Metformin + Tozasertib; first compound 316.23 µM): 0.307
relative viability (Metformin + Tozasertib; first compound 1000 µM): 0.321
relative viability (Apatinib + Navitoclax; first compound 0.08 µM): 0.665
relative viability (Apatinib + Navitoclax; first compound 0.253 µM): 1.03
relative viability (Apatinib + Navitoclax; first compound 0.8 µM): 0.695
relative viability (Apatinib + Navitoclax; first compound 2.53 µM): 0.841
relative viability (Apatinib + Navitoclax; first compound 8 µM): 0.636
relative viability (Apatinib + Crizotinib; first compound 0.08 µM): 0.871
relative viability (Apatinib + Crizotinib; first compound 0.253 µM): 0.696
relative viability (Apatinib + Crizotinib; first compound 0.8 µM): 0.796
relative viability (Apatinib + Crizotinib; first compound 2.53 µM): 0.727
relative viability (Apatinib + Crizotinib; first compound 8 µM): 0.586
relative viability (Apatinib + Pemetrexed; first compound 0.08 µM): 1.27
relative viability (Apatinib + Pemetrexed; first compound 0.253 µM): 1.21
relative viability (Apatinib + Pemetrexed; first compound 0.8 µM): 1.04
relative viability (Apatinib + Pemetrexed; first compound 2.53 µM): 0.895
relative viability (Apatinib + Pemetrexed; first compound 8 µM): 1.05

NCI-H2126
relative viability (Metformin + Tozasertib; first compound 10 µM): 0.764
relative viability (Metformin + Tozasertib; first compound 31.62 µM): 0.834
relative viability (Metformin + Tozasertib; first compound 100 µM): 0.824
relative viability (Metformin + Tozasertib; first compound 316.23 µM): 0.525
relative viability (Metformin + Tozasertib; first compound 1000 µM): 0.53
relative viability (Apatinib + Navitoclax; first compound 0.08 µM): 0.9
relative viability (Apatinib + Navitoclax; first compound 0.253 µM): 0.859
relative viability (Apatinib + Navitoclax; first compound 0.8 µM): 0.826
relative viability (Apatinib + Navitoclax; first compound 2.53 µM): 0.811
relative viability (Apatinib + Navitoclax; first compound 8 µM): 0.802
relative viability (Apatinib + Crizotinib; first compound 0.08 µM): 1.03
relative viability (Apatinib + Crizotinib; first compound 0.253 µM): 0.945
relative viability (Apatinib + Crizotinib; first compound 0.8 µM): 1.07
relative viability (Apatinib + Crizotinib; first compound 2.53 µM): 0.957
relative viability (Apatinib + Crizotinib; first compound 8 µM): 0.894
relative viability (Apatinib + Pemetrexed; first compound 0.08 µM): 0.741
relative viability (Apatinib + Pemetrexed; first compound 0.253 µM): 0.674
relative viability (Apatinib + Pemetrexed; first compound 0.8 µM): 0.736
relative viability (Apatinib + Pemetrexed; first compound 2.53 µM): 0.671
relative viability (Apatinib + Pemetrexed; first compound 8 µM): 0.641

NCI-H2228
relative viability (Metformin + Tozasertib; first compound 10 µM): 0.27
relative viability (Metformin + Tozasertib; first compound 31.62 µM): 0.31
relative viability (Metformin + Tozasertib; first compound 100 µM): 0.241
relative viability (Metformin + Tozasertib; first compound 316.23 µM): 0.333
relative viability (Metformin + Tozasertib; first compound 1000 µM): 0.409
relative viability (Apatinib + Navitoclax; first compound 0.08 µM): 1.02
relative viability (Apatinib + Navitoclax; first compound 0.253 µM): 0.988
relative viability (Apatinib + Navitoclax; first compound 0.8 µM): 0.738
relative viability (Apatinib + Navitoclax; first compound 2.53 µM): 0.708
relative viability (Apatinib + Navitoclax; first compound 8 µM): 0.751
relative viability (Apatinib + Crizotinib; first compound 0.08 µM): 0.542
relative viability (Apatinib + Crizotinib; first compound 0.253 µM): 0.418
relative viability (Apatinib + Crizotinib; first compound 0.8 µM): 0.506
relative viability (Apatinib + Crizotinib; first compound 2.53 µM): 0.42
relative viability (Apatinib + Crizotinib; first compound 8 µM): 0.262
relative viability (Apatinib + Pemetrexed; first compound 0.08 µM): 0.324
relative viability (Apatinib + Pemetrexed; first compound 0.253 µM): 0.312
relative viability (Apatinib + Pemetrexed; first compound 0.8 µM): 0.356
relative viability (Apatinib + Pemetrexed; first compound 2.53 µM): 0.208
relative viability (Apatinib + Pemetrexed; first compound 8 µM): 0.192

NCI-H520
relative viability (Metformin + Tozasertib; first compound 10 µM): 0.462
relative viability (Metformin + Tozasertib; first compound 31.62 µM): 0.496
relative viability (Metformin + Tozasertib; first compound 100 µM): 0.463
relative viability (Metformin + Tozasertib; first compound 316.23 µM): 0.498
relative viability (Metformin + Tozasertib; first compound 1000 µM): 0.469
relative viability (Apatinib + Navitoclax; first compound 0.08 µM): 1.21
relative viability (Apatinib + Navitoclax; first compound 0.253 µM): 1.14
relative viability (Apatinib + Navitoclax; first compound 0.8 µM): 0.982
relative viability (Apatinib + Navitoclax; first compound 2.53 µM): 1.02
relative viability (Apatinib + Navitoclax; first compound 8 µM): 0.857
relative viability (Apatinib + Crizotinib; first compound 0.08 µM): 0.912
relative viability (Apatinib + Crizotinib; first compound 0.253 µM): 0.701
relative viability (Apatinib + Crizotinib; first compound 0.8 µM): 0.737
relative viability (Apatinib + Crizotinib; first compound 2.53 µM): 0.614
relative viability (Apatinib + Crizotinib; first compound 8 µM): 0.45
relative viability (Apatinib + Pemetrexed; first compound 0.08 µM): 0.668
relative viability (Apatinib + Pemetrexed; first compound 0.253 µM): 0.678
relative viability (Apatinib + Pemetrexed; first compound 0.8 µM): 0.736
relative viability (Apatinib + Pemetrexed; first compound 2.53 µM): 0.552
relative viability (Apatinib + Pemetrexed; first compound 8 µM): 0.322

HCC-366
relative viability (Metformin + Tozasertib; first compound 10 µM): 0.142
relative viability (Metformin + Tozasertib; first compound 31.62 µM): 0.141
relative viability (Metformin + Tozasertib; first compound 100 µM): 0.111
relative viability (Metformin + Tozasertib; first compound 316.23 µM): 0.135
relative viability (Metformin + Tozasertib; first compound 1000 µM): 0.163
relative viability (Apatinib + Navitoclax; first compound 0.08 µM): 1.1
relative viability (Apatinib + Navitoclax; first compound 0.253 µM): 1.08
relative viability (Apatinib + Navitoclax; first compound 0.8 µM): 1.04
relative viability (Apatinib + Navitoclax; first compound 2.53 µM): 0.961
relative viability (Apatinib + Navitoclax; first compound 8 µM): 1.01
relative viability (Apatinib + Crizotinib; first compound 0.08 µM): 0.437
relative viability (Apatinib + Crizotinib; first compound 0.253 µM): 0.587
relative viability (Apatinib + Crizotinib; first compound 0.8 µM): 0.605
relative viability (Apatinib + Crizotinib; first compound 2.53 µM): 0.466
relative viability (Apatinib + Crizotinib; first compound 8 µM): 0.547
relative viability (Apatinib + Pemetrexed; first compound 0.08 µM): 0.192
relative viability (Apatinib + Pemetrexed; first compound 0.253 µM): 0.159
relative viability (Apatinib + Pemetrexed; first compound 0.8 µM): 0.129
relative viability (Apatinib + Pemetrexed; first compound 2.53 µM): 0.121
relative viability (Apatinib + Pemetrexed; first compound 8 µM): 0.0888

EMC-BAC-2
relative viability (Metformin + Tozasertib; first compound 10 µM): 0.29
relative viability (Metformin + Tozasertib; first compound 31.62 µM): 0.307
relative viability (Metformin + Tozasertib; first compound 100 µM): 0.317
relative viability (Metformin + Tozasertib; first compound 316.23 µM): 0.289
relative viability (Metformin + Tozasertib; first compound 1000 µM): 0.32
relative viability (Apatinib + Navitoclax; first compound 0.08 µM): 1.2
relative viability (Apatinib + Navitoclax; first compound 0.253 µM): 1.13
relative viability (Apatinib + Navitoclax; first compound 0.8 µM): 1.14
relative viability (Apatinib + Navitoclax; first compound 2.53 µM): 1.07
relative viability (Apatinib + Navitoclax; first compound 8 µM): 0.974
relative viability (Apatinib + Crizotinib; first compound 0.08 µM): 0.726
relative viability (Apatinib + Crizotinib; first compound 0.253 µM): 0.73
relative viability (Apatinib + Crizotinib; first compound 0.8 µM): 0.764
relative viability (Apatinib + Crizotinib; first compound 2.53 µM): 0.633
relative viability (Apatinib + Crizotinib; first compound 8 µM): 0.475
relative viability (Apatinib + Pemetrexed; first compound 0.08 µM): 0.452
relative viability (Apatinib + Pemetrexed; first compound 0.253 µM): 0.465
relative viability (Apatinib + Pemetrexed; first compound 0.8 µM): 0.422
relative viability (Apatinib + Pemetrexed; first compound 2.53 µM): 0.406
relative viability (Apatinib + Pemetrexed; first compound 8 µM): 0.401

NCI-H647
relative viability (Metformin + Tozasertib; first compound 10 µM): 0.244
relative viability (Metformin + Tozasertib; first compound 31.62 µM): 0.293
relative viability (Metformin + Tozasertib; first compound 100 µM): 0.349
relative viability (Metformin + Tozasertib; first compound 316.23 µM): 0.456
relative viability (Metformin + Tozasertib; first compound 1000 µM): 0.307
relative viability (Apatinib + Navitoclax; first compound 0.08 µM): 1.3
relative viability (Apatinib + Navitoclax; first compound 0.253 µM): 1.29
relative viability (Apatinib + Navitoclax; first compound 0.8 µM): 1.04
relative viability (Apatinib + Navitoclax; first compound 2.53 µM): 0.975
relative viability (Apatinib + Navitoclax; first compound 8 µM): 0.779
relative viability (Apatinib + Crizotinib; first compound 0.08 µM): 1.18
relative viability (Apatinib + Crizotinib; first compound 0.253 µM): 1.23
relative viability (Apatinib + Crizotinib; first compound 0.8 µM): 1
relative viability (Apatinib + Crizotinib; first compound 2.53 µM): 0.846
relative viability (Apatinib + Crizotinib; first compound 8 µM): 0.737
relative viability (Apatinib + Pemetrexed; first compound 0.08 µM): 0.176
relative viability (Apatinib + Pemetrexed; first compound 0.253 µM): 0.172
relative viability (Apatinib + Pemetrexed; first compound 0.8 µM): 0.165
relative viability (Apatinib + Pemetrexed; first compound 2.53 µM): 0.139
relative viability (Apatinib + Pemetrexed; first compound 8 µM): 0.127
